These results are taken from patent US20230357179A1, “RAF KINASE INHIBITORS AND METHODS OF USE THEREOF” (Deciphera Pharmaceuticals, LLC, priority 2021, published 2023).

The subject of one assay is WM3928 cells. The assay is described as follows: WM3928 cell proliferation assay (1), resazurin, 96-well. The note with it: inhibition of cell proliferation. Type of assay: cell-based. The method in brief:
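IC50 was derived from resazurin fluorescence (ex 540, em 600 nm) after a 6–7 h dye incubation. Before that, cells had 67–72 h of compound exposure at 37 °C, 5% CO2.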
For orientation: IC50 means the concentration at which inhibition is half-maximal. As for `COC(=O)Nc1cc(-c2cccc(-c3cc(NC(=O)NCCC(C)(C)OC)c(F)cc3C)c2)ccn1` [Example 85], the IC50 was in the range of 0.1 to 0.5 µM.

As to `Cc1cc(F)c(NC(=O)NCCC2(C)CC2)cc1-c1cc(OCCO)nc(-c2ccnc3[nH]ncc23)c1` [Example 87], the half-maximal inhibitory concentration (IC50) is not above 0.1 µM.

For `Cc1cc(F)c(NC(=O)N[C@@H]2CC[C@H](F)C2)cc1-c1cc(OCCO)nc(-c2ccnc3[nH]ncc23)c1` [Example 88], the IC50 fell in the range of 1 to 10 µM.

For `Cc1cc(F)c(NC(=O)NCC[C@@H]2CCO2)cc1-c1cc(OCCO)nc(-c2ccnc3[nH]ncc23)c1` [Example 89], the half-inhibitory concentration (IC50) was in the range of 1 to 10 µM.

In the case of `COC(C)(C)CCNC(=O)Nc1cc(-c2cc(OCCO)nc(-c3ccnc4[nH]ccc34)c2)c(C)cc1F` [Example 90], the IC50 lay in the range of 0.5 to 1 µM.

Turning to `COC(C)(C)CCNC(=O)Nc1cc(-c2cc(OCCO)nc(-c3ccnc4[nH]ncc34)c2)c(C)cc1F` [Example 91], the IC50 lay within 0.1 to 0.5 µM.

On to `Cc1cc(F)c(NC(=O)N2CCC(C)(C#N)CC2)cc1-c1cc(OCCO)nc(-c2ccnc3[nH]ncc23)c1` [Example 92], for which the IC50 fell in the range of 1 to 10 µM.

As for `CNC(=O)c1cc(-c2cc(-c3cc(NC(=O)N4CC[C@H](C(F)(F)F)C4)ccc3C)ccn2)ccn1` [Example 215], the concentration for half-maximal inhibition (IC50) fell in the range of 0.5 to 1 µM.

Regarding `COC(=O)Nc1cc(-c2cncc(-c3cc(NC(=O)N4CC[C@H](C(F)(F)F)C4)ccc3C)c2)ncn1` [Example 224], the half-maximal inhibitory concentration (IC50) was in the range of 0.1 to 0.5 µM.

For another assay, the target named is T1, A-Raf kinase (Homo sapiens, UniProt P10398, Y301D/Y302D).
T1 construct: purchased Sigma
T1 sequence (P10398 with tags, fused parts or gaps Y301D/Y302D): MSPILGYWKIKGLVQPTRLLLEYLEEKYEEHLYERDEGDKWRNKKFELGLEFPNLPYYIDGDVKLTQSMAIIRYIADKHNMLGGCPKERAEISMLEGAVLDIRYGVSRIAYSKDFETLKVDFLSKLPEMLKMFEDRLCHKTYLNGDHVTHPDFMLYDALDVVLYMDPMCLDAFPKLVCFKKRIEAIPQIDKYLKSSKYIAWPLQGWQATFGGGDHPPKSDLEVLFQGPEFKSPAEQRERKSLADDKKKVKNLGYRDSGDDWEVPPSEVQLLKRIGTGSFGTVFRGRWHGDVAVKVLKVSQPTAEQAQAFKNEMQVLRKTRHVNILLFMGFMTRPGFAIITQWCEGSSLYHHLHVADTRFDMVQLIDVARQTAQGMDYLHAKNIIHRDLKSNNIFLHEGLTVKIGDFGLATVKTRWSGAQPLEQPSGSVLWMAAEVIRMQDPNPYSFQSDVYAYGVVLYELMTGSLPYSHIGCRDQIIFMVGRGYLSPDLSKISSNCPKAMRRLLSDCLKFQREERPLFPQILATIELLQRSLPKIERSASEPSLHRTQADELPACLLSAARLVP
The assay is described as follows: Biochemical assay for A-Raf.1 (coupled pyruvate kinase/lactate dehydrogenase). The note with it: read-out: ARAF.1 IC50. The method in brief: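 IC50 values came from four-parameter sigmoidal fits of percent inhibition, using rates over the 4 to 5 h window of continuous A340 readings (6 h, 30° C). The coupled PK/LDH system tracked NADH oxidation during 5.55 nM A-Raf activity on 30.1 nM MEK at 1 mM ATP, buffer pH 7.5.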
As for `COC(=O)Nc1cc(-c2cccc(-c3cc(NC(=O)NCCC(C)(C)OC)c(F)cc3C)c2)ccn1` [Example 85], the IC50 was more than 1 µM.

With `Cc1cc(F)c(NC(=O)NCCC2(C)CC2)cc1-c1cc(OCCO)nc(-c2ccnc3[nH]ncc23)c1` [Example 87], the IC50 lay within 0.5 to 1 µM.

Take `Cc1cc(F)c(NC(=O)N[C@@H]2CC[C@H](F)C2)cc1-c1cc(OCCO)nc(-c2ccnc3[nH]ncc23)c1` [Example 88]: the 50% inhibitory concentration (IC50) is more than 1 µM.

On to `Cc1cc(F)c(NC(=O)NCC[C@@H]2CCO2)cc1-c1cc(OCCO)nc(-c2ccnc3[nH]ncc23)c1` [Example 89], for which the IC50 was more than 1 µM.

For the molecule `COC(C)(C)CCNC(=O)Nc1cc(-c2cc(OCCO)nc(-c3ccnc4[nH]ccc34)c2)c(C)cc1F` [Example 90], the IC50 is more than 1 µM.

Regarding `COC(C)(C)CCNC(=O)Nc1cc(-c2cc(OCCO)nc(-c3ccnc4[nH]ncc34)c2)c(C)cc1F` [Example 91], the concentration for half-maximal inhibition (IC50) is more than 1 µM.

In the case of `Cc1cc(F)c(NC(=O)N2CCC(C)(C#N)CC2)cc1-c1cc(OCCO)nc(-c2ccnc3[nH]ncc23)c1` [Example 92], the 50% inhibitory concentration (IC50) is more than 1 µM.

In a further assay the target is T2, B-Raf (V600E) kinase (Homo sapiens, UniProt P15056, V600E).
T2 construct: B-Raf (V600E) residues 416-766 with a; GST (N); purchased SignalChem
T2 sequence (P15056 416-766 V600E): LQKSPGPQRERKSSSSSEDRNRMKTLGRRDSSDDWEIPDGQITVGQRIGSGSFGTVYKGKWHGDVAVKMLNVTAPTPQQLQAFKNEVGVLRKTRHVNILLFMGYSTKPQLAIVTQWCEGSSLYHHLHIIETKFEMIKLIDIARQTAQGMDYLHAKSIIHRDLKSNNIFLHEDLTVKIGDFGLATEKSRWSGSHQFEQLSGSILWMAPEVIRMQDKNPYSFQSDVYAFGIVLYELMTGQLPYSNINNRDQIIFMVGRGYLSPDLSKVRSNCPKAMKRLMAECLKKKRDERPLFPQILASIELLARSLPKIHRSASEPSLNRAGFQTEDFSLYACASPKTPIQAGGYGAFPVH
The assay is described as follows: Biochemical assay for B-Raf (V600E).1 (coupled pyruvate kinase/lactate dehydrogenase). The note with it: read-out: BRAF V600E.1 IC50. The method in brief:
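IC50 came from four-parameter sigmoidal fits of percent inhibition, using reaction rates over 3-4 h. Continuous A340 reading (6 h, 30 °C) of a pyruvate kinase/lactate dehydrogenase-coupled reaction: B-Raf V600E 0.03 nM, MEK 30.1 nM, ATP 1 mM, Tris pH 7.5, 1% DMSO.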
For `COC(=O)Nc1cc(-c2cccc(-c3cc(NC(=O)NCCC(C)(C)OC)c(F)cc3C)c2)ccn1` [Example 85], the IC50 was not above 0.1 µM.

Consider `Cc1cc(F)c(NC(=O)NCCC2(C)CC2)cc1-c1cc(OCCO)nc(-c2ccnc3[nH]ncc23)c1` [Example 87], for which the IC50 is not above 0.1 µM.

For `Cc1cc(F)c(NC(=O)N[C@@H]2CC[C@H](F)C2)cc1-c1cc(OCCO)nc(-c2ccnc3[nH]ncc23)c1` [Example 88], the IC50 was not above 0.1 µM.

Turning to `Cc1cc(F)c(NC(=O)NCC[C@@H]2CCO2)cc1-c1cc(OCCO)nc(-c2ccnc3[nH]ncc23)c1` [Example 89], the IC50 was more than 1 µM.

As to `COC(C)(C)CCNC(=O)Nc1cc(-c2cc(OCCO)nc(-c3ccnc4[nH]ccc34)c2)c(C)cc1F` [Example 90], the IC50 was not above 0.1 µM.

Take `COC(C)(C)CCNC(=O)Nc1cc(-c2cc(OCCO)nc(-c3ccnc4[nH]ncc34)c2)c(C)cc1F` [Example 91]: the IC50 is not above 0.1 µM.

With `Cc1cc(F)c(NC(=O)N2CCC(C)(C#N)CC2)cc1-c1cc(OCCO)nc(-c2ccnc3[nH]ncc23)c1` [Example 92], the IC50 is not above 0.1 µM.

The test system of the next assay is A375 cells. The assay is described as follows: A375 cell proliferation assay (2), resazurin, 384-well. Type of assay: cell-based. The note with it: Homo sapiens, A-375, inhibition of cell proliferation, 67-72 h. How it is done: A375 Cell Proliferation Assay (2)
A375 cells (catalog (#CRL-1619) are obtained from the American Type Culture Collect (ATTC, Manassas, VA). Briefly, cells were grown in DMEM High Glucose supplemented with 10% characterized fetal bovine serum (Invitrogen, Carlsbad, CA) and 1% Penicillin/Streptomycin/L-Glutamine at 37° C., 5% CO2, and 95% humidity. Cells are expanded until reaching 70-95% confluency at which point they are sub-cultured or harvested for assay use. Using the Beckman Coulter Echo 650, a serial dilution of test compound is dispensed into a 384-well black clear bottom plate in triplicate. Six hundred twenty-five cells are added per well in 50 μL complete growth medium in the 384-well plate. Plates are incubated for 67-72 h at 37° C., 5% CO2, and 95% humidity. At the end of the incubation, 10 μL of a 440 μM solution of resazurin (Sigma, St. Louis, MO) in PBS is added to each well of the plate and plates are incubated for an additional 3-6 h at 37° C., 5% CO2, and 95% humidity. Plates are read on a Synergy2 or equivalent reader (Biotek, Winooski VT) using an excitation of 540 nm and an emission of 600 nm. Data is analyzed using Prism software (GraphPad, San Diego, CA) to calculate IC50 values.
`CNC(=O)c1cc(-c2cncc(-c3cc(NC(=O)N4CC[C@H](C(F)(F)F)C4)ccc3C)c2)ncn1` [Example 220]: the IC50 was 1 to 10 µM.

On to `CNC(=O)c1cc(-c2cc(-c3cc(NC(=O)N4CC[C@H](C(C)C)C4)ccc3C)ccn2)ccn1` [Example 225], for which the IC50 was 0.1 to 0.5 µM.

On to `CNC(=O)c1cc(-c2cncc(-c3cc(NC(=O)N4CC[C@H](C(C)C)C4)ccc3C)c2)ncn1` [Example 226], for which the IC50 lay within 0.5 to 1 µM.

As for `Cc1ccc(NC(=O)N2CC[C@H](C)C2)cc1-c1cncc(-c2cc(NC(=O)C3CC3)ncn2)c1` [Example 227], the half-inhibitory concentration (IC50) lay in the range of 1 to 10 µM.

For the molecule `CNC(=O)c1cc(-c2cncc(-c3cc(NC(=O)N4CC[C@H](C(F)(F)F)C4)ccc3C)c2)ccn1` [Example 228], the IC50 was 1 to 10 µM.

On to `CNC(=O)c1cc(-c2cncc(-c3cc(NC(=O)N4CC[C@H](C(C)C)C4)ccc3C)c2)ccn1` [Example 229], for which the IC50 lay in the range of 0.1 to 0.5 µM.
